# What was measured:
# Experiment in all cases: KinaseProfiler Assay
# [1] = target: Abl(H396P)(h) (Homo sapiens, UniProt P00519, H396P)
# [2] = target: T1, ARK5(h) (Homo sapiens, UniProt O60285)
# T1 sequence (O60285 1-661): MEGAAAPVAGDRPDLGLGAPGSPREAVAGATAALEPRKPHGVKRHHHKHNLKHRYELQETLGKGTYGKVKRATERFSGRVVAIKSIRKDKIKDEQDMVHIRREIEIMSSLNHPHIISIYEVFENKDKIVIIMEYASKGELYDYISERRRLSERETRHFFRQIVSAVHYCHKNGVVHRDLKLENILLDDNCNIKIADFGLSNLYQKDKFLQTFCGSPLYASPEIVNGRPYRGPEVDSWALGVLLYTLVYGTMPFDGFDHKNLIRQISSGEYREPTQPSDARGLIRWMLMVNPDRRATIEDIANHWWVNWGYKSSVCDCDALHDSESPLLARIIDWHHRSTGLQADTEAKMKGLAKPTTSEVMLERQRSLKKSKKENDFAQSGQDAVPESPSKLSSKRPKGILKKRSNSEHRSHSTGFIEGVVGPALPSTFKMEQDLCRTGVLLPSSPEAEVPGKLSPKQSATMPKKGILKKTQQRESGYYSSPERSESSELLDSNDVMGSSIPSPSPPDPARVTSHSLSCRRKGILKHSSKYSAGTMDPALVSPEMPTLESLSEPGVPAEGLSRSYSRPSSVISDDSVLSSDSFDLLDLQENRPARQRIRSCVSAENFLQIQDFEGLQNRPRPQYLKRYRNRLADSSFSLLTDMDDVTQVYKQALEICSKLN
# [3] = target: T2, BrSK2(h) (Homo sapiens, UniProt Q8IWQ3)
# T2 sequence (Q8IWQ3 1-736): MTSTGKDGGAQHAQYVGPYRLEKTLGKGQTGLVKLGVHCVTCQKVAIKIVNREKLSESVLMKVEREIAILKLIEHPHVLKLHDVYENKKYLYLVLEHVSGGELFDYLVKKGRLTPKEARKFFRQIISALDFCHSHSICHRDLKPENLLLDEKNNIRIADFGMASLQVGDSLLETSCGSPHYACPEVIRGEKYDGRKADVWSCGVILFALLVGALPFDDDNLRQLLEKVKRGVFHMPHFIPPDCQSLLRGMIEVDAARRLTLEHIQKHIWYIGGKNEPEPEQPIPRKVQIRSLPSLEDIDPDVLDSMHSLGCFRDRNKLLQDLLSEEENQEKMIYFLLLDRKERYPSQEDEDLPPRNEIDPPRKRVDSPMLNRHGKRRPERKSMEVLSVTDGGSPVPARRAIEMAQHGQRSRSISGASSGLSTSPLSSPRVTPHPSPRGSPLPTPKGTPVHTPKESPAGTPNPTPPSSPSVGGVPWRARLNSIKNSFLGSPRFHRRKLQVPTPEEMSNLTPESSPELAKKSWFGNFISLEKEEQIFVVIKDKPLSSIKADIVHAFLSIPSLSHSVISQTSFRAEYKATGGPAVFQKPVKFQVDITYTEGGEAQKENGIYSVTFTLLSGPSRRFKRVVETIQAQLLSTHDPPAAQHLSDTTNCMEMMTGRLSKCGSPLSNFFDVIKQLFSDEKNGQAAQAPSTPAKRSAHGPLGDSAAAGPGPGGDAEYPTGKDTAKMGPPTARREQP
# [4] = target: T3, DCAMKL2(h) (Homo sapiens, UniProt Q8N568)
# T3 sequence (Q8N568 1-766): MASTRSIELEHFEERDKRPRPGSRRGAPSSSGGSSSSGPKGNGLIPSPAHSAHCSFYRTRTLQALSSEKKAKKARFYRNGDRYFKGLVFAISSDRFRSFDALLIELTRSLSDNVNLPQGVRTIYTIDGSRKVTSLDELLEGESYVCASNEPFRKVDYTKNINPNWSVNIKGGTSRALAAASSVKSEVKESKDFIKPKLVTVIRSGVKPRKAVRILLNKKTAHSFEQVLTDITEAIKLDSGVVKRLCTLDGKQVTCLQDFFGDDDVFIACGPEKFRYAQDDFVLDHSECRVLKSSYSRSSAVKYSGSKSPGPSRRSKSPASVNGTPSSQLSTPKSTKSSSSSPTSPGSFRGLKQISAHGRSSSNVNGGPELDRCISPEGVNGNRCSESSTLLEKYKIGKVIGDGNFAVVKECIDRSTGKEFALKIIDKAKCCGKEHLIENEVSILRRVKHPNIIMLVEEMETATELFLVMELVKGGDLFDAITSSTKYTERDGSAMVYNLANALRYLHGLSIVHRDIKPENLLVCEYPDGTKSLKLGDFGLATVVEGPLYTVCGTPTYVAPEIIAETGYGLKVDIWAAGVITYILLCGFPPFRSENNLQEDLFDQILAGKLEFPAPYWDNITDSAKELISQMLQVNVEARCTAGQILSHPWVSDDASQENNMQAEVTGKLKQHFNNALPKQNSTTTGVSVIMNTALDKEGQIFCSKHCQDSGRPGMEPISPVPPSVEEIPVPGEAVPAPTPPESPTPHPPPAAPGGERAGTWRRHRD
# [5] = target: MSK2(h) (Homo sapiens, UniProt O75676)
# [6] = target: Plk3(h) (Homo sapiens, UniProt Q9H4B4)
# [7] = target: WNK3(h) (Homo sapiens, UniProt Q9BYP7)
# Sequence of WNK3(h) (Q9BYP7 whole entry): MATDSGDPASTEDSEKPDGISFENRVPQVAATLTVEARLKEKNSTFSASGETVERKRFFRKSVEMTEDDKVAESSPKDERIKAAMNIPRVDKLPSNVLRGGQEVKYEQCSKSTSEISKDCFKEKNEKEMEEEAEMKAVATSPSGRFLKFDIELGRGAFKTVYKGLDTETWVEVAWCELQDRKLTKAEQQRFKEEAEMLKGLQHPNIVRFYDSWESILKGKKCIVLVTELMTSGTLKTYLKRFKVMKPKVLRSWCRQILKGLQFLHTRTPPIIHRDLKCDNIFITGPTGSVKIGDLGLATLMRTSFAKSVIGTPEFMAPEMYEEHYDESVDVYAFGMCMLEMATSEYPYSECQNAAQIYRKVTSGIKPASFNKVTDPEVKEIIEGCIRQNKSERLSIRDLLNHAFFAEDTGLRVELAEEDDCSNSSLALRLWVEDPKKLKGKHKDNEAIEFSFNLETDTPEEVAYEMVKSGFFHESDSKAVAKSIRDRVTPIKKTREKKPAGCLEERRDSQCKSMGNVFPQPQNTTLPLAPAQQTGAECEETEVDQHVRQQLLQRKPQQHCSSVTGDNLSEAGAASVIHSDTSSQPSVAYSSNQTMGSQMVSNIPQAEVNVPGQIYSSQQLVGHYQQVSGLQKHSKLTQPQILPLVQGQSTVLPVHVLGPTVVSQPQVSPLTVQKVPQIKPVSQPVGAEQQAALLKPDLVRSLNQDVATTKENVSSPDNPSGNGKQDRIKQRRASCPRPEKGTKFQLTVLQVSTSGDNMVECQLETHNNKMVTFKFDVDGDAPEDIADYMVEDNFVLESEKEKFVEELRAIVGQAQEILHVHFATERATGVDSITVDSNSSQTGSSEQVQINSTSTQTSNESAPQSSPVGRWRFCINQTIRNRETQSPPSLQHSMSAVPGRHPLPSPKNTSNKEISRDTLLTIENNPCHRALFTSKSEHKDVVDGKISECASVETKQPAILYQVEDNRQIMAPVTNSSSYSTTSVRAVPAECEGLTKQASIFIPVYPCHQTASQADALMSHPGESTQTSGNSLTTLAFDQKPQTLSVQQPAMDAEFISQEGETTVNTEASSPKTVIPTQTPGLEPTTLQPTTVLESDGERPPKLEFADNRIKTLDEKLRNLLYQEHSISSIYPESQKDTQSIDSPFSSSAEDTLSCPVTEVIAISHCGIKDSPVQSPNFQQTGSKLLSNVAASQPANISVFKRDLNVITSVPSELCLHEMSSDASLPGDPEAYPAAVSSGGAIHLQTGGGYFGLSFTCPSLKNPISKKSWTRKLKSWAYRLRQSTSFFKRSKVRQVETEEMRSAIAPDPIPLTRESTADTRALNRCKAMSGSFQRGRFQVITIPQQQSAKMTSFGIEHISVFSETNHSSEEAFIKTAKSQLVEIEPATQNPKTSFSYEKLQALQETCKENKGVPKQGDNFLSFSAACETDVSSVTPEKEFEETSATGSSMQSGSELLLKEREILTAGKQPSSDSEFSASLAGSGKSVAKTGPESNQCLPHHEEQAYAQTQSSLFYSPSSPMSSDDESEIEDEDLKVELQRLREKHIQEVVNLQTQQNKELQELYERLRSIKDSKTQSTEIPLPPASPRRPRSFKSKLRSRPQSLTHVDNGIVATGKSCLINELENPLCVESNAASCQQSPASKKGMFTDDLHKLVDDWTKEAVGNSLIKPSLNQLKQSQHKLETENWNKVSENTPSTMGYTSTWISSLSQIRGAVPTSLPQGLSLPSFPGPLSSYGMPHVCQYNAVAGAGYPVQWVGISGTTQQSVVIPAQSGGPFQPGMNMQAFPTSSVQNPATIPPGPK
# Sequence of MSK2(h) (O75676 whole entry): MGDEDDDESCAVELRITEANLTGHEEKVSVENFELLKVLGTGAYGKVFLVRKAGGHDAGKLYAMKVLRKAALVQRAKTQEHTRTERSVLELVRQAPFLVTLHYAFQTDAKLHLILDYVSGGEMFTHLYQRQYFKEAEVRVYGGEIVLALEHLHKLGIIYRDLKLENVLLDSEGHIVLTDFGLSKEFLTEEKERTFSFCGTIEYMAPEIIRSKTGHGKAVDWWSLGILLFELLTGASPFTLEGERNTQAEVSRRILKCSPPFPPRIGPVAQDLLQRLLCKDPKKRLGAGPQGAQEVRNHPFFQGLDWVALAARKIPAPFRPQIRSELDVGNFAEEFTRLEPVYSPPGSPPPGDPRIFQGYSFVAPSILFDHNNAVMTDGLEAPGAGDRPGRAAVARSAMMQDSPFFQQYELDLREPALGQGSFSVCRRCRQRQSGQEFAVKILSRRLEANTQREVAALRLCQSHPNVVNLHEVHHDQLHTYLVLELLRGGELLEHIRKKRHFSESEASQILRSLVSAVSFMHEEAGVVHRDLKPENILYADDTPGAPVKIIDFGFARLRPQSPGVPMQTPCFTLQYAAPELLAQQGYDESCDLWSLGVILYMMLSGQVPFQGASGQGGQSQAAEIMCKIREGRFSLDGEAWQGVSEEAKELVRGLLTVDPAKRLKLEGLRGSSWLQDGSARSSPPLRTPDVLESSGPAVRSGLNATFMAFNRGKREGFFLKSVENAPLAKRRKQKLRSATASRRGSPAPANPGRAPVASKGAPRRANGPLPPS
# Sequence of Plk3(h) (Q9H4B4 whole entry): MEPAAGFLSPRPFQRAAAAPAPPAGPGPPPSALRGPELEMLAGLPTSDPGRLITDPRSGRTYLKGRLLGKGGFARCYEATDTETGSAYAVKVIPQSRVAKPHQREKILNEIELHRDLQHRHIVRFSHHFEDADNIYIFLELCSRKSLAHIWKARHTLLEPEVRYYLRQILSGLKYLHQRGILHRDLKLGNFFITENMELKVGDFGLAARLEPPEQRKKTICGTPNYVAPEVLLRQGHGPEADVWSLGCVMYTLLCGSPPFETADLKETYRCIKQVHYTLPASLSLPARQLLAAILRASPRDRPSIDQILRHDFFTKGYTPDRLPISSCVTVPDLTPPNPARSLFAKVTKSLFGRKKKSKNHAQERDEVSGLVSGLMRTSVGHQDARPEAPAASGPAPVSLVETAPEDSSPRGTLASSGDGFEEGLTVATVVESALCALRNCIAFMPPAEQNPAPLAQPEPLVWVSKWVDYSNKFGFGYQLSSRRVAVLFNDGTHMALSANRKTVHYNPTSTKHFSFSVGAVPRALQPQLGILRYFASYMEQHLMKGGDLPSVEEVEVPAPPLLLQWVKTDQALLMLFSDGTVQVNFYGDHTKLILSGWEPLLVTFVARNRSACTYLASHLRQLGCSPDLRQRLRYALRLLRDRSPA
smiles,measurement,setting,value
"CC(C)CCC(=O)[C@]1(O)C(O)=C(C(=O)C(C)C)C(=O)[C@H]1CCC(C)C [TH2, tetrahydroiso-cohumulone]",kinase inhibition,[1]; 1 μg/ml,96% of control
same,kinase inhibition,[1]; 5 μg/ml,103% of control
same,kinase inhibition,[1]; 25 μg/ml,83% of control
same,kinase inhibition,[1]; 50 μg/ml,65% of control
same,kinase inhibition,[1]; 100 μg/ml,54% of control
same,kinase inhibition,[2]; 1 μg/ml,103% of control
same,kinase inhibition,[2]; 5 μg/ml,104% of control
same,kinase inhibition,[2]; 25 μg/ml,99% of control
same,kinase inhibition,[2]; 50 μg/ml,77% of control
same,kinase inhibition,[2]; 100 μg/ml,74% of control
same,kinase inhibition,[3]; 1 μg/ml,99% of control
same,kinase inhibition,[3]; 5 μg/ml,90% of control
same,kinase inhibition,[3]; 25 μg/ml,84% of control
same,kinase inhibition,[3]; 50 μg/ml,83% of control
same,kinase inhibition,[3]; 100 μg/ml,72% of control
same,kinase inhibition,[4]; 1 μg/ml,96% of control
same,kinase inhibition,[4]; 5 μg/ml,100% of control
same,kinase inhibition,[4]; 25 μg/ml,110% of control
same,kinase inhibition,[4]; 50 μg/ml,96% of control
same,kinase inhibition,[4]; 100 μg/ml,86% of control
same,kinase inhibition,[5]; 1 μg/ml,99% of control
same,kinase inhibition,[5]; 5 μg/ml,94% of control
same,kinase inhibition,[5]; 25 μg/ml,70% of control
same,kinase inhibition,[5]; 50 μg/ml,51% of control
same,kinase inhibition,[5]; 100 μg/ml,37% of control
same,kinase inhibition,[6]; 1 μg/ml,120% of control
same,kinase inhibition,[6]; 5 μg/ml,105% of control
same,kinase inhibition,[6]; 25 μg/ml,104% of control
same,kinase inhibition,[6]; 50 μg/ml,99% of control
same,kinase inhibition,[6]; 100 μg/ml,86% of control
same,kinase inhibition,[7]; 1 μg/ml,111% of control
same,kinase inhibition,[7]; 5 μg/ml,113% of control
same,kinase inhibition,[7]; 25 μg/ml,109% of control
same,kinase inhibition,[7]; 50 μg/ml,113% of control
same,kinase inhibition,[7]; 100 μg/ml,111% of control
